{
  "source": "patent US20250177478A1",
  "about": "“G ALPHA Q/11 INHIBITORS FOR USE AS AN ANALGESIC” (University of Florida Research Foundation, Incorporated, priority 2022, published 2025)",
  "key": {"C57BL/6 mice": {"test_system": "C57BL/6 mice", "assay": "Tail immersion test (54° C), spinal analgesia", "assay_type": "in vivo, mouse", "details": "for anti-nociceptive response in tail flick (tail immersion) test: subcutaneous", "excerpt": "A. Experimental animals. C57BL/6 mice (6-8 weeks old) of both sexes were used. Mice were housed in groups on a 12-h light-dark cycle (6:00 am light cycle; 6:00 pm dark cycle) with food (Teklad Global 16% protein rodent diets; Envigo Inc., WI, USA) and water available ad libitum. Animal groups were compiled to ensure minimization of factors (e.g., weight, sex, and health). Mice were within 20-28 g in weight at start of all studies. All tested groups contained a control group and consisted of male and female mice. Males and females were tested on the same day but at different times so that they were not in the room at the same time. All the experiments were tested during the light cycle between 8:00 am and 3:00 pm to avoid any long-term disruption of sleep cycles. Mice were transferred to the behavioural testing room at least 45 min before the first test to acclimatize. Following behavioural evaluation, animals were killed by CO2 inhalation, followed by cervical dislocation and postmortem decapitation.\nB. Drug treatments. […] The dose of YM-254890 for subcutaneous injection was taken from previous published studies. The dose of morphine selected for subcutaneous administration (2.5, 5 and 10 mg kg-1) is commonly used in mouse analgesia. For the combined administration of morphine and YM-254890 on thermal anti-nociception, YM-254890 was administered 10 min before the morphine. The latency of response was measured before injection of drugs (baseline latency response) and at different time intervals (post-treatment latency response) after drugs injection.\nC. Intrathecal injections. Intrathecal (i.t.) administration was performed following the method described previously (Hylden J L et al. “Intrathecal morphine in mice: a new technique.” Eur J Pharmacol (1980) 67:313-316; Li D et al. “Direct Intrathecal Injection of Recombinant Adeno-associated Viruses in Adult Mice.” J Vis Exp (2019)) with slight modifications. All intrathecal injections were performed using a 25 μL Hamilton syringe with a 30-gauge needle. The injection volume was 5 μL for each mouse. […] Each solution was injected without injection cannulae. Intrathecal injections were made into the L5-L6 intervertebral space of unanesthetized mice. The flick of the tail was considered indicative of a successful i.t. administration.\n(2) Tail Immersion test. Anti-nociception induced by YM-254890 or evaluation of morphine's analgesic effects was determined by tail immersion test. The test was performed as previously described (Wang et al. 2019). Individual mice were transferred to experimentation room and restrained using a well-ventilated 50-ml tube with air holes. In order to minimize handling and to facilitate both the drug delivery and testing, each mouse was comfortably positioned in the plastic restrainer tubes with both fore paws and hind paws extending through holes at the bottom of the restrainer. All animals were habituated to restraint 1 h for 3 days prior to behaviour test. […] Once the animal was immobilized (within 25-30 s), two thirds of the entire tail was dipped in water bath heated to 54° C."}, "DRG nociceptors": {"test_system": "DRG nociceptors", "assay": "Whole cell patch-clamp recordings of acutely dissociated DRG nociceptors", "assay_type": "cell-based, mouse", "description": "F. Acutely dissociated dorsal root ganglion (DRG) Preparation. Male or female mice between 1 and 2 months of age were used for acute DRG isolations. […] Dissociated DRG cultures were prepared as previously described (Perner C et al. “Protocol for dissection and culture of murine dorsal root ganglia neurons to study neuropeptide release.” STAR Protoc (2021) 2:100333). Briefly, DRGs were dissected from 1- to 2-month-old mice in Hank's buffered salt solution (HBSS) and digested with Collagenase A and Dispase II for 25 min at 37° C., centrifuged at 200×g for 5 min, and washed with Dulbecco's modified Eagle's medium (DMEM) supplemented with 10% fetal bovine serum (FBS), glutamate, sodium pyruvate, 1% penicillin and 1% streptomycin. DRGs were then triturated in Neurobasal A medium supplemented with 10% FBS, 1% penicillin, 1% streptomycin, 1% GlutaMAX, 2% B27, […] nerve growth factor (NGF) and […] glial cell line-derived neurotrophic factor (GDNF). After plating on laminin-coated coverslips, cells were incubated at 37° C. overnight. Experiments were performed the day after dissection.\nG. Whole cell patch-clamp recordings. Nociceptors were identified by physiological classification protocols (Petruska J C et al. “Subclassified acutely dissociated cells of rat DRG: histochemistry and patterns of capsaicin-, proton-, and ATP-activated currents.” J Neurophysiol (2000) 84:2365-2379) summarized in FIG. 10 and further by responsivity to morphine. Each experimental group consisted of 12-18 DRG recordings from three animals, 1-2 of which were female. Hyperpolarization-activated current (Ih) and kinetics of resulting transient currents were determined by stepping membrane potential from −60 to −110 mV for 500 ms in 10 mV increments (FIG. 10A). Outward currents were identified by first preconditioning membrane potential at −100 mV for 500 ms and then stepping from −60 to 40 mV in 20 mV increments for 200 ms (FIG. 10D). Inward current dynamics were determined by preconditioning at −80 mV and then stepping from −60 to 40 mV in 10 mV increments (FIG. 10G). A 6-s, 0- to 2-nA continuous ramp stimulation protocol was used to determine rheobase. Membrane capacitance (Cm), series resistance (Rs) and input resistance (Ri) were tested with a hyperpolarizing 10 mV pulse of 10 ms duration initially and at a 30 s interval throughout the recording period. Cells were recorded only if initial series resistance was ≤20 MΩ and excluded if Rs varied >20% while recording. Offline analysis identified clustering of a population n=30 with uniform morphine responsivity that was selected for further analysis, with basal parameters #SEM: Cm=27.31±4.72 pF, Ri=492±19.29 MQ, Ih=7.10±2.45 pA·pF−1, IA tau=8.39±0.41 ms and action potential (AP) tau=1.22±0.08 ms. K+ internal was used for all recordings, containing: 6 mM NaCl, 4 mM NaOH, 130 mM K-gluconate, 11 mM ethylene glycol-bis(β-aminoethyl ether)tetraacetic acid (EGTA), 1 mM CaCl2, 1 mM MgCl2, 10 mM N-(2-hydroxyethyl)piperazine-N′-(2-ethanesulphonic acid) (HEPES), 2 mM Na2ATP, and 0.2 mM Na2GTP 0.2, adjusted to pH 7.3-7.4 with HCl. External artificial CSF contained: 125 mM NaCl, 3 mM KCl, 1.2 mM KH2PO4, 1.2 mM MgSO4, 25 mM NaHCO3, 2 mM CaCl2), and 10 mM dextrose 10, adjusted to pH 7.3-7.4 with HCl."}, "[1]": {"details": "co-application 100 nM YM + 1 μM morphine"}},
  "note": "Positions of bridges follow the written chain, without caps; N, C: chain ends. Non-standard residues stand in square brackets, D forms with d. Residues, ends and D or L forms follow the SMILES beside them. Leu(3R-O(AcLeu(3R-OH))) = CC(=O)N[C@H](C(=O)O[C@H](C(C)C)[C@H](N)C(=O)O)[C@H](O)C(C)C; NMeT = CN[C@H](C(=O)O)[C@@H](C)O; dPhLac = O=C(O)[C@H](O)Cc1ccccc1; NMeA = CN[C@@H](C)C(=O)O; NMeDha = C=C(NC)C(=O)O",
  "data": [
    {"smiles": "C=C1C(=O)N[C@@H](C)C(=O)N(C)[C@@H](C)C(=O)N[C@@H]([C@H](OC(=O)[C@@H](NC(C)=O)[C@H](O)C(C)C)C(C)C)C(=O)N(C)[C@@H]([C@@H](C)OC)C(=O)O[C@H](C)[C@H](NC(C)=O)C(=O)O[C@H](Cc2ccccc2)C(=O)N1C", "note": "[YM-254890] (Ac-T[dPhLac][NMeDha]A[NMeA][Leu(3R-O(AcLeu(3R-OH)))][NMeT](Me); ester 1-C)", "values": [
      {"measurement": "effect on morphine analgesia, tail immersion test", "setting": "C57BL/6 mice; YM-254890 0.25 mg kg-1 s.c. 10 min before morphine 5 mg/kg s.c.", "result": "eliminated this effect"},
      {"measurement": "effect on morphine analgesia, tail immersion test", "setting": "C57BL/6 mice; YM-254890 0.5 mg·kg−1 s.c. 10 min before morphine 5 mg/kg s.c.", "result": "significant enhancement of the anti-nociceptive effects of morphine"},
      {"measurement": "time to return to baseline nociception, tail immersion test", "setting": "C57BL/6 mice; YM-254890 alone, intrathecal, 3.0 and 4.5 nmol", "result": "about 2 h"},
      {"measurement": "magnitude of anti-nociceptive effect upon increasing the dose, tail immersion test", "setting": "C57BL/6 mice; YM-254890 alone, intrathecal, 3.0 to 4.5 nmol (ceiling effect)", "result": "did not change"},
      {"measurement": "anti-nociception in tail immersion test, intrathecal", "setting": "C57BL/6 mice; YM-254890 alone, intrathecal, doses above 1.5 nmol per injection", "result": "significant anti-nociceptive properties"},
      {"measurement": "anti-nociceptive response in tail flick (tail immersion) test", "setting": "C57BL/6 mice; YM-254890 alone, highest dose 1 mg·kg−1", "result": "significant anti-nociceptive response"},
      {"measurement": "anti-nociceptive response in tail flick (tail immersion) test", "setting": "C57BL/6 mice; YM-254890 alone, lower doses (0.1, 0.3, 0.5 mg/kg)", "result": "no significant difference in nociceptive response"},
      {"measurement": "effect on systemic morphine analgesia, tail immersion test", "setting": "C57BL/6 mice; YM-254890 intrathecal 0.5 nmol (lowest subthreshold dose) 10 min before morphine 2.5 mg/kg s.c.", "result": "significantly enhance the anti-nociceptive effects of morphine"},
      {"measurement": "dose dependence of enhancement of morphine analgesia, tail immersion test", "setting": "C57BL/6 mice; YM-254890 intrathecal 0.5, 1.5, 3.0, 4.5 nmol with morphine 2.5 mg/kg s.c.", "result": "increased dose dependently until maximizing at the cut-off value for the test"},
      {"measurement": "maximal extent and duration of morphine analgesia, tail immersion test", "setting": "C57BL/6 mice; YM-254890 intrathecal, at each of the doses, with morphine 2.5 mg/kg s.c.", "result": "both the maximal extent and duration of the analgesic effects of morphine were increased"},
      {"measurement": "inhibition of substance P induced excitation of DRG nociceptors", "setting": "DRG nociceptors; 10 nM substance P followed by 10 nM SP and 100 nM YM", "result": "inhibit the effects of substance P"},
      {"measurement": "magnitude of decrease in excitability relative to morphine", "setting": "DRG nociceptors; 100 nM YM versus 1 μM morphine", "result": "smaller as compared with morphine"},
      {"measurement": "rapidly inactivating A-type potassium currents (IA), voltage-step protocol 2", "setting": "DRG nociceptors; YM-254890 or morphine alone", "result": "significantly inhibited IA"},
      {"measurement": "AP amplitude, voltage-step protocol", "setting": "DRG nociceptors; bath application alone: 100 nM YM or 1 μM morphine", "result": "moderately reduced AP amplitude"},
      {"measurement": "excitability of DRG nociceptors (rheobase, 0-2 nA ramp stimulation)", "setting": "DRG nociceptors; bath application alone: 1 μM morphine or 100 nM YM", "result": "significant decrease in the excitability"},
      {"measurement": "action potential firing in 0-2 nA ramp protocol", "setting": "DRG nociceptors; [1]", "result": "prevented action potential firing throughout the 2-nA ramp protocol in all recordings"},
      {"measurement": "evoked AP responses, voltage-step protocol", "setting": "DRG nociceptors; [1]", "result": "largely prevented evoked AP responses"},
      {"measurement": "evoked AP responses, voltage-step protocol", "setting": "DRG nociceptors; co-application 100 nM YM + 1 μM morphine, listed as YM", "result": "greatly inhibited evoked depolarization"},
      {"measurement": "rapidly inactivating A-type potassium currents (IA), voltage-step protocol 2", "setting": "DRG nociceptors; coadministration of YM-254890 and morphine", "result": "nearly eliminated IA"}
    ]}
  ]
}
